{"source": "patent US10023536B2", "about": "“Suprametallogels and uses thereof” (Massachusetts Institute of Technology, priority 2014, dated 2018)", "tested_on": "HeLa cells", "assay": "Cytotoxicity of the gel components against HeLa cells (MILLIQ water as control)", "type": "cell-based", "conditions": "components of the gel tested separately", "description": "FIG. 27: cytotoxicities of (1) a gel formed from C-2 and Fe^2+ (“gel”), (2) PEG, and (3) Fe^2+ (“Fe”) against HeLa cells. MILLIQ water (“milliQ”) used as a control.\nBecause C-2 forms gels with Fe^2+ salts, which are biocompatible, these gels may have applications as therapeutic devices. First, the cytotoxicity of these gels was tested on HeLa cells to determine the effect of the components of the gels on cell viability. Due to the difficulty in assessing the toxicity of gel materials, the components of the gels were tested separately."}
{"substance": "iron", "values": [{"measurement": "cytotoxicity compared to MILLIQ water", "value": "little cytotoxicity"}]}
